Measured values taken from ChEMBL document CHEMBL1201862, “PubChem BioAssay data set” (2004).
Blank lines part the entries; values can stand above or below the compound they belong to. The source made the active and inactive calls.

Legend:
[1] = target: T1, Tyrosine-protein phosphatase non-receptor type 7 (Homo sapiens, UniProt P35236); assay: HePTP (PTPN7) phosphatase inhibitor potency, SAR follow-up, biochemical, set 2 (AID 449736); type: functional
T1 sequence (P35236 whole entry): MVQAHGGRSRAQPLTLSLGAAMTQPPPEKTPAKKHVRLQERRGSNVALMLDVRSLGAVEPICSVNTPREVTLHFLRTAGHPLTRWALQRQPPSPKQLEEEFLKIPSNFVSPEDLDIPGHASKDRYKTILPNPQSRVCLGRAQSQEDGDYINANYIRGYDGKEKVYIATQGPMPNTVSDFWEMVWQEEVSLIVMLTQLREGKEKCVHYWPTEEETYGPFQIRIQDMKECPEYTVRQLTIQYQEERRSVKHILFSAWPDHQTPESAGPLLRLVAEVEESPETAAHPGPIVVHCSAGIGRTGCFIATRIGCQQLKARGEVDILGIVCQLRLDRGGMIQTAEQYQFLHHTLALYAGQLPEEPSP

[2] = target: G-protein coupled receptor 55 (Homo sapiens, UniProt Q9Y2T6); assay: GPR55 antagonists, SAR follow-up, counter-screen for GPR35 antagonist project, imaging, image-based (AID 2397); type: functional
Chain of G-protein coupled receptor 55 (Q9Y2T6 whole entry): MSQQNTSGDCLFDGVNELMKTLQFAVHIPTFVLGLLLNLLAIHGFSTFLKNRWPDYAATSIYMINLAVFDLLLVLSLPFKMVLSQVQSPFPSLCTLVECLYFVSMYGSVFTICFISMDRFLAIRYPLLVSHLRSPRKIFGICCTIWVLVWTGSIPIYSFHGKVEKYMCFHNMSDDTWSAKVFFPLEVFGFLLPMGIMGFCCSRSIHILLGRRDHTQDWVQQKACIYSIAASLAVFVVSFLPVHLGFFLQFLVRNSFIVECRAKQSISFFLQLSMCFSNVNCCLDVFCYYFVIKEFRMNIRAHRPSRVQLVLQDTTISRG

[3] = target: T2, Tyrosine-protein phosphatase non-receptor type 22 (Homo sapiens, UniProt Q9Y2R2); assay: SAR LYP1 Fluorescent Assay using OMFP substrate for In Vitro dose response studies - Set 3. [Related pubchem assays (depositor defined):AID1779, AID1784, AID2140, AID2686]; type: functional
T2 sequence (Q9Y2R2 whole entry): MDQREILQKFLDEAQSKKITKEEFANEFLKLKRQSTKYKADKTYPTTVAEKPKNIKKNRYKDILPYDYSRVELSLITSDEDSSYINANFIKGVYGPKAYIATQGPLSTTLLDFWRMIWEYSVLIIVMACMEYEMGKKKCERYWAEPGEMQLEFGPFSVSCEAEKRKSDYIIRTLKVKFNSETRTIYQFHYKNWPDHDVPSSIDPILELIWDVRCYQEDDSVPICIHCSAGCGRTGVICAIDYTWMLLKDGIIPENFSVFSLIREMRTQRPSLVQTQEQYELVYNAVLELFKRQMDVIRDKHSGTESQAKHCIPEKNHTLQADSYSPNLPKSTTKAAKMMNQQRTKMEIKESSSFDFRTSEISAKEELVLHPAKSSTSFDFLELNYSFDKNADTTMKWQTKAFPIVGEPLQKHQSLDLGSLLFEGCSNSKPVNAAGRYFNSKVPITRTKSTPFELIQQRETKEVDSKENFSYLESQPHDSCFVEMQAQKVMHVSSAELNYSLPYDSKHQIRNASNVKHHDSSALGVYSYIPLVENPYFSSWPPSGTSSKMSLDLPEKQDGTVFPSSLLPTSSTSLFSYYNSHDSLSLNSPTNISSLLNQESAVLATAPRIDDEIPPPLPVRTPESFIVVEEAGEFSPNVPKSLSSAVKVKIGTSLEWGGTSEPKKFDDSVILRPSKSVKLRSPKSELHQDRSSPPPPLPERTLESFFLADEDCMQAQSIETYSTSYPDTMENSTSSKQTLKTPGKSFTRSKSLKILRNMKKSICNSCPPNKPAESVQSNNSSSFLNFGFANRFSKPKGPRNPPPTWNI

[4] = target: T2, Tyrosine-protein phosphatase non-receptor type 22; assay: LYP (PTPN22) phosphatase inhibitor potency, SAR follow-up, biochemical, pCAP fluorogenic substrate, fluorescence, set 3 (AID 449727); type: functional
[5] = target: Tyrosine-protein phosphatase non-receptor type 12 (Homo sapiens, UniProt Q05209); assay: SAR Selectivity Analysis of small molecule inhibitors of PEST using pCAP in a fluorescence assay. [Related pubchem assays (depositor defined):AID1779, AID1784, AID2135]; type: functional
[6] = target: T3, G-protein coupled receptor 35 (Homo sapiens, UniProt Q9HC97); assay: GPR35 antagonists blocking zaprinast-driven arrestin recruitment, primary screen, imaging, U2OS, beta-arrestin-GFP, zaprinast agonist (AID 2058); type: functional;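 note: antagonist potency meaning inhibition of agonist-induced arrestin redistribution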
T3 sequence (Q9HC97 whole entry): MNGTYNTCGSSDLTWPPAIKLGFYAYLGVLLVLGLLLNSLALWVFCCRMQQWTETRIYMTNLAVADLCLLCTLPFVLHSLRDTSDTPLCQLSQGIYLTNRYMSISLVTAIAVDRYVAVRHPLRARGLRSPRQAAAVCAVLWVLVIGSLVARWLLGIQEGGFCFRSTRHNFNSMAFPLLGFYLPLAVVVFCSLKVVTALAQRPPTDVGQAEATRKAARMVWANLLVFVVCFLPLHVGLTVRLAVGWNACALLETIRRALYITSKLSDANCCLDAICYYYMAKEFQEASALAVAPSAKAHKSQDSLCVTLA

[7] = target: T3, G-protein coupled receptor 35; assay: SAR Analysis for the identification of Selective Antagonists of ERK1/2 Activity in GPR35-Overexpressing U2OS Cells. [Related pubchem assays: 2079, 2058 ]; type: functional, cell-based
[8] = target: Beta-galactosidase (Escherichia coli, UniProt Q8VNN2); assay: beta-galactosidase enzyme inhibitors and activators, dose response, artefact control for CCR6 antagonist project, biochemical, E. coli enzyme, set 3 (AID 504712); type: functional
Chain of Beta-galactosidase (Q8VNN2 whole entry): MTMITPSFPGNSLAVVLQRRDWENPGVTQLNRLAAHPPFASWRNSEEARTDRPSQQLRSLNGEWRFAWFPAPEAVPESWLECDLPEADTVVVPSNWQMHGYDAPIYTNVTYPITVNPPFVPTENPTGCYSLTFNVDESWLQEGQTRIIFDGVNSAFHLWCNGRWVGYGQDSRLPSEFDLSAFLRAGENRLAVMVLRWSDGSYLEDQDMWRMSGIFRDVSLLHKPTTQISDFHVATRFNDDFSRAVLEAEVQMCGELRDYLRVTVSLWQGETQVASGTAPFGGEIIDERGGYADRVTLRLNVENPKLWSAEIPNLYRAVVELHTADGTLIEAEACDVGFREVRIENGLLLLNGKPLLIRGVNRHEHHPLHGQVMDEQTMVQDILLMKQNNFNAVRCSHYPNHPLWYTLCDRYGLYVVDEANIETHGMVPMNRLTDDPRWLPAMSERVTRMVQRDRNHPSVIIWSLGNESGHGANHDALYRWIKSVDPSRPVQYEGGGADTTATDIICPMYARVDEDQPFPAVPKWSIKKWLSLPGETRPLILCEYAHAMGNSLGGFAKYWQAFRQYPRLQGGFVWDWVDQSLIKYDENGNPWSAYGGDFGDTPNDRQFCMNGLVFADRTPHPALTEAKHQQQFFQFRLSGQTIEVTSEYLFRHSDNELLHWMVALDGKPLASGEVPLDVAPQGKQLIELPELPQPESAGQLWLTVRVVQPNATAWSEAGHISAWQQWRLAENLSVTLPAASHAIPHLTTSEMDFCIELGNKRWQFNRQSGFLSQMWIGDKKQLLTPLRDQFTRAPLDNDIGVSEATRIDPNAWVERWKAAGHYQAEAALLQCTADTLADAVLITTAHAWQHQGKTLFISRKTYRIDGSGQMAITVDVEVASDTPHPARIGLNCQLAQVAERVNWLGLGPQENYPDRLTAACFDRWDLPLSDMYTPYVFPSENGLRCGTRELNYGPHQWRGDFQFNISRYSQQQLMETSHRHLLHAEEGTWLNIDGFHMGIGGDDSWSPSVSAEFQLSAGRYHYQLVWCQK

[9] = target: T4, SUMO-activating enzyme (Homo sapiens, UniProt Q9UBT2); assay: SUMOylation inhibitor hit validation, confirmation, SUMOylation inhibitor project, biochemical, AlphaScreen (AID 2018); type: functional
T4 sequence (Q9UBE0 whole entry): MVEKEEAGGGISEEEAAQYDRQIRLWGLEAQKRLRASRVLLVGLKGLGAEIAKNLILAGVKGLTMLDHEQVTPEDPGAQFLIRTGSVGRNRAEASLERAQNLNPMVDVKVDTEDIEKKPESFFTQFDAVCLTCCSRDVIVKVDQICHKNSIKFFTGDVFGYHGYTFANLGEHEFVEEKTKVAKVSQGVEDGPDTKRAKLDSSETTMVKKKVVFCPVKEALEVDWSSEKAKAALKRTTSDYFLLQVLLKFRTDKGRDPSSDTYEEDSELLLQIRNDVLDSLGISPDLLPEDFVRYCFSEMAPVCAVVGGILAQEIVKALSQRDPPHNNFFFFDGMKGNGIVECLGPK
T4 sequence (Q9UBT2 whole entry): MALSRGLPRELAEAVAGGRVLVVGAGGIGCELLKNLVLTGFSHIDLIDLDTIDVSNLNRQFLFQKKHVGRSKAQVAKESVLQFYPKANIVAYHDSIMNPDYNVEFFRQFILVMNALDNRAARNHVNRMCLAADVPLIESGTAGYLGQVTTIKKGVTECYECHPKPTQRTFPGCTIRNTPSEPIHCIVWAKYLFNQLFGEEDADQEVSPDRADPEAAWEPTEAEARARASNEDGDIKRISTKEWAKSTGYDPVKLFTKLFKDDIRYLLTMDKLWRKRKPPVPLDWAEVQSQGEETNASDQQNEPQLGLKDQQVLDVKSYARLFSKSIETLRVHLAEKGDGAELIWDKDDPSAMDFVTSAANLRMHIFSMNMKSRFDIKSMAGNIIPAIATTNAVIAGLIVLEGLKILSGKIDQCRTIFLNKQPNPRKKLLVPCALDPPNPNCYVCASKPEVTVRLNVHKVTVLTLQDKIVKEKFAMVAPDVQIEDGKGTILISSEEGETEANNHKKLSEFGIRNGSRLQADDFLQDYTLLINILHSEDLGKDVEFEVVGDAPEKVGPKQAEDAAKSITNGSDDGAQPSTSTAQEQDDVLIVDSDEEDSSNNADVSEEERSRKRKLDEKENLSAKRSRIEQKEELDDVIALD

[10] = target: T5, C-C chemokine receptor type 6 (Homo sapiens, UniProt P51684); assay: CCR6 receptor antagonists, dose response, cell-based, luminescent beta-arrestin readout (AID 504728); type: functional
T5 sequence (P51684 whole entry): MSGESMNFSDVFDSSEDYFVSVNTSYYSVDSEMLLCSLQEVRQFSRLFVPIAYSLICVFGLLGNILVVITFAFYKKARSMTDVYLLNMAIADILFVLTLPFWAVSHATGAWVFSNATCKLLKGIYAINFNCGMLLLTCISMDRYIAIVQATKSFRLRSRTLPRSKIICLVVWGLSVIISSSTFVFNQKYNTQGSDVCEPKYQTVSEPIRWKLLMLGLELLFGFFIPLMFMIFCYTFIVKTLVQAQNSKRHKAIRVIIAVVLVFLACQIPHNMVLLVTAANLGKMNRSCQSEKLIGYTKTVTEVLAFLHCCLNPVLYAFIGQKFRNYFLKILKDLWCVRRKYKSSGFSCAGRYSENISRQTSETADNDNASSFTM

[11] = target: T4, SUMO-activating enzyme; assay: inhibitors of in vitro SUMOylation cascade, primary screen, biochemical, HTRF, uHTS (AID 2006); type: protein-complex assay
[12] = target: Integrin alpha-4 (Homo sapiens, UniProt P13612); assay: VLA-4 integrin allosteric ligands, SAR follow-up, cell-based, LIBS antibody binding, flow cytometry (AID 488791); type: functional
Chain of Integrin alpha-4 (P13612 whole entry): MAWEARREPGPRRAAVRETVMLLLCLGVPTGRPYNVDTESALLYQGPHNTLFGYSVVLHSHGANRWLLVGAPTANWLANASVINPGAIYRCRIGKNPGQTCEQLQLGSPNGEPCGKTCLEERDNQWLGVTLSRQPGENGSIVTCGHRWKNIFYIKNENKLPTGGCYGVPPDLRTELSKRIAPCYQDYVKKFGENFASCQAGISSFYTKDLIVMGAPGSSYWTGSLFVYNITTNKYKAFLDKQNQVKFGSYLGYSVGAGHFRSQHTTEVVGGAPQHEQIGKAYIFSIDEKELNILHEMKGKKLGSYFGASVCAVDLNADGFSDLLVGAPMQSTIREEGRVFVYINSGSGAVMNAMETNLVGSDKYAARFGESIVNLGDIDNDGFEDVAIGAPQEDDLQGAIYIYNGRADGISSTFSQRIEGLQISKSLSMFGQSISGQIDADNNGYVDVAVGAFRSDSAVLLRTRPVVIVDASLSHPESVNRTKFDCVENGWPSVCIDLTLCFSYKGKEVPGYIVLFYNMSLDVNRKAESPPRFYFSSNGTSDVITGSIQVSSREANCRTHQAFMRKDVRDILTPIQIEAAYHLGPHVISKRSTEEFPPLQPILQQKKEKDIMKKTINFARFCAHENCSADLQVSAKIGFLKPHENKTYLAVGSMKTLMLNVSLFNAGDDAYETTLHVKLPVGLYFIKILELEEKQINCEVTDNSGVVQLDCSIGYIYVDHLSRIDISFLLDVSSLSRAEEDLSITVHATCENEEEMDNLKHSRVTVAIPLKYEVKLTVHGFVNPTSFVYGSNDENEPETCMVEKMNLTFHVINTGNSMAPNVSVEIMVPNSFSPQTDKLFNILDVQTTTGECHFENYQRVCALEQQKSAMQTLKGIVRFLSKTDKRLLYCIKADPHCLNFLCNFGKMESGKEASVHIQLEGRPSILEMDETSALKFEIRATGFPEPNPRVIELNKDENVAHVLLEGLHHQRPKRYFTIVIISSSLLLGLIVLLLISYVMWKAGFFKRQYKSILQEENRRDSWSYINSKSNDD

[13] = target: Glyceraldehyde-3-phosphate dehydrogenase (Homo sapiens, UniProt P04406)
Chain of Glyceraldehyde-3-phosphate dehydrogenase (P04406 whole entry): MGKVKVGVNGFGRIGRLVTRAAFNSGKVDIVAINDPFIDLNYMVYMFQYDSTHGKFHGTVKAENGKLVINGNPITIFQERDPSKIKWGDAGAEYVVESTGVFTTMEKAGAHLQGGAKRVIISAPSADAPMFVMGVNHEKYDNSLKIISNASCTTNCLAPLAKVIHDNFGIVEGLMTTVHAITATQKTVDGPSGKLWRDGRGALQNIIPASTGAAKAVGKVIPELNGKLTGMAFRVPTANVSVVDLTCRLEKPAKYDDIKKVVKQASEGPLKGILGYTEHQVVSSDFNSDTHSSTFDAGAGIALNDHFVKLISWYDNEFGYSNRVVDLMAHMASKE

[14] = target: T6, Alkaline phosphatase, tissue-nonspecific isozyme (Homo sapiens, UniProt P05186); assay: human TNAP enzyme inhibitors, SAR follow-up, biochemical, luminescent, dose response (AID 1056)
T6 sequence (P05186 whole entry): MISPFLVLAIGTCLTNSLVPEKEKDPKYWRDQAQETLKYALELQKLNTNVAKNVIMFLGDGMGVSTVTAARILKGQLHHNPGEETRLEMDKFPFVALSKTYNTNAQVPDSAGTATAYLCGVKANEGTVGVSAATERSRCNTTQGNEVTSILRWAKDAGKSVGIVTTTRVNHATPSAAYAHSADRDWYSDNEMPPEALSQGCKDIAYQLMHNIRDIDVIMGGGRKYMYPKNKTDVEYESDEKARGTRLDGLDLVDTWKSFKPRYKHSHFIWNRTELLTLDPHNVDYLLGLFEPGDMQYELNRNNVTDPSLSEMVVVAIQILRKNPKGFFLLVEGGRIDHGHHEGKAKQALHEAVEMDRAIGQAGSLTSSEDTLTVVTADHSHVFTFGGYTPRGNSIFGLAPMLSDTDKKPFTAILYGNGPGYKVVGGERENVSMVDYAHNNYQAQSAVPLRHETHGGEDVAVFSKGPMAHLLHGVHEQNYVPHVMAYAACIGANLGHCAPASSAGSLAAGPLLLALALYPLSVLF

[15] = target: Alkaline phosphatase, placental type (Homo sapiens, UniProt P05187); assay: PLAP enzyme inhibitors, confirmation, biochemical, luminescence (AID 1512); type: functional
Chain of Alkaline phosphatase, placental type (P05187 whole entry): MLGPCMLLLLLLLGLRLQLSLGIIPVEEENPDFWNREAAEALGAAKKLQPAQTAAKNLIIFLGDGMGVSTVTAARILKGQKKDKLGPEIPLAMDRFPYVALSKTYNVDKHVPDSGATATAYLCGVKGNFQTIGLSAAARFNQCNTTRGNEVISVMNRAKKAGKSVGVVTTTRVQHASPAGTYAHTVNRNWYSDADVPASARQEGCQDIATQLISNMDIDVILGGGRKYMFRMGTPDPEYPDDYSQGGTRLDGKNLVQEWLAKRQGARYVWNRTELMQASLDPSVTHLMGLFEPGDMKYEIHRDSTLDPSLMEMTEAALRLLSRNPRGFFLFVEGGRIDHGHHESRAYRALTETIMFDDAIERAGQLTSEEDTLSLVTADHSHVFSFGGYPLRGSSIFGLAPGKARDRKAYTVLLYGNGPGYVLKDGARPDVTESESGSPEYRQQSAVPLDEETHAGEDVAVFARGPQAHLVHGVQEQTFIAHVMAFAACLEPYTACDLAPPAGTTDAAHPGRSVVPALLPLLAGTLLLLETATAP

[16] = target: DNA damage-inducible transcript 3 protein (Mus musculus, UniProt P35639); type: functional, Cricetulus griseus
Chain of DNA damage-inducible transcript 3 protein (P35639 whole entry): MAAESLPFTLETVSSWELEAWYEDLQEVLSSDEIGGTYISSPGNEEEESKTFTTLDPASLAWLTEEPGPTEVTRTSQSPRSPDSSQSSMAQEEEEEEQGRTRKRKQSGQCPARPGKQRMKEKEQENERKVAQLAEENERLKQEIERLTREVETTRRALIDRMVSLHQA

[17] = target: T7, Small ubiquitin-related modifier 1 (Homo sapiens, UniProt P63165); assay: inhibitors of SUMO1 peptide binding, dose response, biochemical, fluorescence polarization, uHTS hits (AID 624382); type: functional; details: read-out: IC50_Mean
T7 sequence (P63165 whole entry): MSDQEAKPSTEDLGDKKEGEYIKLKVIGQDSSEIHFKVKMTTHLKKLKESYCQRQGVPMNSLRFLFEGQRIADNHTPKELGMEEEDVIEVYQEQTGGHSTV

[18] = target: Induced myeloid leukemia cell differentiation protein Mcl-1 (Homo sapiens, UniProt Q07820); type: functional
[19] = growth suppression of beta-catenin-knockout colon cells, dose response, cell-based, HCT116, human colon tumor (AID 1045); type: functional;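 note: HCT116 colon tumor cells with beta catenin knocked out; cells exposed to compound for 60 hours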
[20] = target: T7, Small ubiquitin-related modifier 1; assay: inhibitors of SUMO1 partner interactions, dose response, biochemical, FRET (AID 624383); type: functional; details: read-out: IC50_Mean
[21] = growth suppression of PTEN-null colon cells, dose response, cell-based, HCT116 PTEN knockout (AID 1047); type: functional;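 note: HCT116 colon tumor cells with PTEN knocked out; cells exposed to compound for 60 hours before readout; potency for loss of cell viability measured by luminescence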

- IC50 [1]: 8.56 µM (active)
- IC50 [2]: > 32 µM (inactive)
- IC50 [3]: > 100 µM (inactive)
- IC50 [4]: > 100 µM (inactive)
- IC50 [5]: 32.3 µM (active)
- IC50 [6]: < 0.5 µM (active)
- IC50 [7]: 0.691 µM (active)
Compound: COc1cccc(/C=C2\SC(=S)N(CCCC(=O)Nc3ccc(C(=O)O)cc3)C2=O)c1

- IC50 [8]: > 66.6 µM (inactive)
- IC50 [9]: 18.2 µM (active)
- IC50 [10]: > 66.6 µM (inactive)
- IC50 [11]: 8.52 µM (active)
Compound: N#C/C(=C\c1ccc(-c2ccc([N+](=O)[O-])cc2)o1)C(=O)Nc1nc(-c2cccs2)cs1

- EC50 [12]: 16.4 µM (active)
Compound: Cc1ccc(NC(=O)c2cc(N3C(=O)CCC3=O)ccc2N2CCOCC2)cc1

- IC50 [13]: > 100 µM (not active)
- IC50 [14]: 3.41 µM (active)
- IC50 [15]: > 100 µM (inactive)
Compound: COc1ccccc1-c1nc(SCc2ccccc2F)n[nH]1

Compound: Fc1cc(F)c2nc(Nc3nc4cc5c(cc4s3)OCO5)sc2c1
- Absolute IC50 (CHOP) [16]: 10 µM
- IC50 [17]: > 66.6 µM (inactive)
- IC50 [18]: 1.12 µM (active)
- EC50 [19]: 17.3 µM (active)
- IC50 [20]: 1.53 µM (active)
- EC50 [21]: 18.6 µM (active)
